Results published in patent US20040248806A1, “Compounds comprising an analgesic molecule linked to a vector that can vectorise said molecule through the hematoencephalic barrier and pharmaceutical compositions containing same” (priority 2001, published 2004).
Where two headings read alike, the source gives them in different places. Non-standard residues stand in square brackets, D forms with d. Residues, ends and D or L forms follow the SMILES beside them. *: point of attachment. X1 = CN1CC[C@]23c4c5ccc(O)c4O[C@H]2[C@@H](O[C@@H]2O[C@H](C(=O)NCCS*)[C@@H](O)[C@H](O)[C@H]2O)C=C[C@H]3[C@H]1C5; Mpa = O=C(O)CCS

Key:
[1] = Respiratory depression (blood O2 saturation); type: in vivo, rat; conditions: rats, subcutaneous; for effect on oxygen saturation (FIG. 5, B and C) / oxygen level (SO2): 5×ED50 and 10×ED50 doses; for oxygen level (SO2): between 30 and 90 min; for effect on O2 saturation (FIG. 5, A): ED50 dose
Description: The respiratory depression was calculated in rats. The product is injected into the animals subcutaneously and, after a certain amount of time, an aliquot of blood is taken from the femoral artery via a catheter implanted beforehand. During the study, the animals are placed in a calm place. After the blood sample has been taken, the oxygen saturation (SO2) and the CO2 pressure (PCO2) are measured. The SO2 values are measured in % O2.

delta receptor = target: T1, delta receptor (Bos taurus, UniProt F1N083); assay: Receptor affinity, [3H]DPDPE binding in calf frontal cortex homogenate
T1 construct: Tissue homogenates are prepared from calf brains; from tissue; host or cells: calf brain frontal cortex homogenate
Description: (§1) Tissue homogenates are prepared from calf brains (thalamus for μ1 and μ2 and frontal cortex for delta). [^3H][D-Ala^2,D-Leu^5]enkephalin (DADLE) (0.7 nM) is incubated with 3 ml of tissue homogenate (15 mg of tissue per ml) in the presence of 10 nM of [D-Pen^2,D-Pen^5]enkephalin (DPDPE) and of increasing concentrations of free or vectorized M6G. Under these conditions, specific binding to μ1 binding sites is observed. For the μ2 receptor, [D-Ala^2, MePhe^4,Gly(ol)^5]enkephalin (DAMGO) (1 nM) is incubated with 3 ml of tissue homogenate in the presence of 5 nM [D-Ser2,Leu^5]enkephalin-Thr^6 (DSLET) and of increasing concentrations of free or vectorized M6G. For the delta receptor, the tissue is incubated with [^3H] [D-Pen^2,D-Pen^5]enkephalin in the presence of free or vectorized M6G. The nonspecific binding is determined by adding to the labeled ligands 1 μM of levallorphan.

μ2 receptor = target: T2, μ2 receptor (Bos taurus, UniProt P79350); assay: Receptor affinity, DAMGO binding in calf thalamus homogenate; conditions: DAMGO 1 nM with 5 nM DSLET
T2 construct: Tissue homogenates are prepared from calf brains; from tissue; host or cells: calf brain thalamus homogenate
Description: as §1

μ1 receptor = assay: Receptor affinity, [3H]DADLE binding in calf thalamus homogenate; conditions: [3H]DADLE 0.7 nM with 10 nM DPDPE
Description: as §1

[2] = systemic injection; cited from earlier work
Tail flick test = type: in vivo, mouse; conditions: mice; for ED50: dose giving analgesic effect in 50% of the mice
Description: II.2. Assay Used: Tail Flick Test
a) Experimental Conditions
The mouse tail is placed in front of an infrared source. The light is focused on the ventral surface of the tail so as to produce a surface temperature of 55° C. As soon as the mouse moves the tail, the reaction time is then measured. The compounds studied are administered subcutaneously.
Three measurements are taken before administration of the product so as to have a baseline time. The percentage of mice in which analgesia has occurred is then represented by the number of mice having a reaction time which is at least double the baseline time divided by the total number of mice. The ED50 dose represents the concentration which gives 50% of mice in which analgesia has occurred.
[…]. We determined the ED50, which represents the dose which gives an analgesic effect in 50% of the mice in the “tail flick” model, for each product. […].

[3] = In situ brain perfusion (penetration through the BBB); type: in vivo; conditions: mouse, perfusion of 60 seconds in buffer
Excerpt: a) Experimental Conditions: In Situ Brain Perfusion
Mice (20-25 g, Iffa-Credo; l'Arbresle, France) are anesthetized. After exposure of the common carotid, the right external carotid artery is ligated at the level of the bifurcation with the internal carotid, and the common carotid is ligated between the heart and the site of the implantation of the catheter (polyethylene catheter, ID: 0.76). Said catheter, pre-filled with a heparin solution (100 units/ml) is inserted into the common carotid. The mice are perfused with a perfusion buffer (128 mM NaCl, 24 mM NaHCO3, 4.2 mM KCl, 2.4 mM NaH2PO4, 1.5 mM CaCl2, 0.9 mM MgSO4 and 9 mM D-glucose). This buffer is filtered and then a mixture containing 95% O2/5% CO2 is bubbled through in order to maintain the pH in the region of 7.4 and to supply the brain with oxygen during the perfusion.
The mice are perfused with the buffer containing the free M6G (compound 1: specific activity 84 mCi/mg) or the vectorized M6G (compound 2; specific activity 14.3 mCi/mg). Just before the start of the perfusion, the heart is stopped by sectioning the ventricles, in order to avoid reflux of the perfusate during the perfusion. The right hemisphere is then perfused at a rate of 10 ml/min for 60 seconds, after which time the mouse is decapitated. The amount of radioactivity in the right hemisphere is then measured and the brain penetration index (Kin) is calculated. […]

T2 sequence (P79350 whole entry): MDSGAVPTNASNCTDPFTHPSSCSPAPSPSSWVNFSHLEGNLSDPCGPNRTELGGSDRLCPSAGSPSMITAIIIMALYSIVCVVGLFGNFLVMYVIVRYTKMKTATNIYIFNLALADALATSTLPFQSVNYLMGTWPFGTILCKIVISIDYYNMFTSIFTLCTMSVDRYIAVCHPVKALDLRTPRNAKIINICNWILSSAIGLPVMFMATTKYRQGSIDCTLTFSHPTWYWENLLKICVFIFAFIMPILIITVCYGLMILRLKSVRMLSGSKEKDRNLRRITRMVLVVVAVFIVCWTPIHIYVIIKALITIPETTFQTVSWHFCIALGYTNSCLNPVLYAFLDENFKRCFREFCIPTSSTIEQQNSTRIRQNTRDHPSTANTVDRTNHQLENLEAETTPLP
T1 sequence (F1N083 1-372): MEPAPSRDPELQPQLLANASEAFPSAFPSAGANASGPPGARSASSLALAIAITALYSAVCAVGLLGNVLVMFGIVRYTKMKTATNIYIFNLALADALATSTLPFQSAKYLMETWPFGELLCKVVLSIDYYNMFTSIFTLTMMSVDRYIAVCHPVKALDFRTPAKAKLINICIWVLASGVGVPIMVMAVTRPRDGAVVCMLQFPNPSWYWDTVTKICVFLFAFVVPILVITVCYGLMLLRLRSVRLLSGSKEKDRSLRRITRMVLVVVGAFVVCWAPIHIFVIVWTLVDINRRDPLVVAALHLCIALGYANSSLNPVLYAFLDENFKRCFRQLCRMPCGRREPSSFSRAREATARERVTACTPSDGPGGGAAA

Compound | effect on oxygen saturation (FIG. 5, B and C) [1] | oxygen level (SO2) [1] | mortality (FIG. 5, C) ([1]; 10×ED50 dose, 60 min time point) | effect on O2 saturation (FIG. 5, A) [1] | Ki (delta receptor) | Ki (μ2 receptor) | Ki (μ1 receptor) | analgesic activity compared with morphine [2] | Duration of the effect (Tail flick test; intravenous) | ED50 (Tail flick test; intravenous) | Duration of the effect (Tail flick test; subcutaneous) | ED50 (Tail flick test; subcutaneous) | increase in passage into the brain (Kin) versus free M6G (FIG. 4) [3] | ED50 (Tail flick test; Mus musculus, sc, subcutaneous, read-out: ED50) | ED50 (Tail flick test; Mus musculus, intravenous, read-out: ED50)
CN1CC[C@]23c4c5ccc(O)c4O[C@H]2[C@@H](O[C@@H]2O[C@H](C(=O)O)[C@@H](O)[C@H](O)[C@H]2O)C=C[C@H]3[C@H]1C5 [Compound 1, morphine-6-glucuronide] | very significant decrease in the oxygen saturation | ~50% | caused the death of some animals | no effect | 23 nM | 5.82 nM | 2.67 nM | roughly the same analgesic activity | 90 min | >5.7 µmol/kg | 150 min | 6.6 µmol/kg | – | – | –
CC(C)C[C@H](NC(=O)[C@H](CCCNC(=N)N)NC(=O)[C@H](CCCNC(=N)N)NC(=O)CCSSCCNC(=O)[C@H]1O[C@@H](O[C@H]2C=C[C@H]3[C@H]4Cc5ccc(O)c6c5[C@@]3(CCN4C)[C@H]2O6)[C@H](O)[C@@H](O)[C@@H]1O)C(=O)N[C@@H](CO)C(=O)N[C@@H](Cc1ccc(O)cc1)C(=O)N[C@@H](CO)C(=O)N[C@@H](CCCNC(=N)N)C(=O)N[C@@H](CCCNC(=N)N)C(=O)N[C@@H](CCCNC(=N)N)C(=O)N[C@@H](Cc1ccccc1)C(=O)O [Compound 2] ([Mpa](X1)RRLSYSRRRF-OH; C-terminus assumed) | no notable decrease | – | – | no effect | 19 nM | 0.6 nM | – | – | – | – | – | – | approximately 100 fold | – | –
CN1CC[C@]23c4c5ccc(O)c4O[C@H]2[C@@H](O)C=C[C@H]3[C@H]1C5 [Compound 3, Morphine] | very significant decrease in the oxygen saturation | ~50% | – | small decrease in O2 saturation | – | – | – | – | 60 min | – | 90 min | – | – | 11.6 µmol/kg | 15.4 µmol/kg
